In patent publication US7473790B2 (Pfizer Inc., priority 2003, dated 2009) one finds IC50 data, which are given here for eleven compounds.

In this assay the target is T1, HCV polymerase (Hepatitis C virus genotype 1b, UniProt P26663).
T1 construct: 2.5 pmoles (0.15 μg) HCV polymerase protein in a final volume of 75 μL
In words: HCV polymerase primer/template-directed transcription assay (32P-GTP incorporation, filter binding). It is filed as biochemical. The conditions noted are these: recombinant HCV polymerase; 30 minutes at 30° C.; concentration giving 50% inhibition of polymerase-directed transcription; read-out: IC50. Put shortly: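 IC50s come from triplicate cpm, refit with an enzyme-concentration (30 nM) correction when under 200 nM. Reactions ran 30 min at 30° C in Tris pH 7.2 with MgCl2, 1 μM GTP spiked with α-32P-GTP, biotin-dG12 primer and poly(rC)300 template, with 1% DMSO. Incorporated label was collected on DE filtermats and counted.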

For orientation: IC50 means the concentration needed to halve the response being measured.

T1 sequence (P26663 2420-3010): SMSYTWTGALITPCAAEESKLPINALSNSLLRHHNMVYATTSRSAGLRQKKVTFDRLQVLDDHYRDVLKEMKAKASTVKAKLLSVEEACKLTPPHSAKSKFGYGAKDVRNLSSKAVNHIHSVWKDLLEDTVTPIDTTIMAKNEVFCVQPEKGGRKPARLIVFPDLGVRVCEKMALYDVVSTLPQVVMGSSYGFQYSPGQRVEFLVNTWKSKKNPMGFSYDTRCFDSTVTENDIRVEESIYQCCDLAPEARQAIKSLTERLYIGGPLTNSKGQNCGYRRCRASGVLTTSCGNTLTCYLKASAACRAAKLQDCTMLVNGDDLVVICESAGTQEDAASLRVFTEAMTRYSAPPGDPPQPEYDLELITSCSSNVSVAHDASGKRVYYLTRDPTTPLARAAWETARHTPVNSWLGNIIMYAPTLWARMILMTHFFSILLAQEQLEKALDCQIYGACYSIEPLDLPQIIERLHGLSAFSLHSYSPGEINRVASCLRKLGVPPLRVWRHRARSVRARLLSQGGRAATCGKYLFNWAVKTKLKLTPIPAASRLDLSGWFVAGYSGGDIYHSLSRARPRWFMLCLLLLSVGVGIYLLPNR

Turning to `CCc1noc(CC2=C(O)CC(CCc3cc(Cl)c(OC)cc3OC)(C3CCCC3)OC2=O)n1` (centres unmarked) [B(62), 6-[2-(5-Chloro-2,4-dimethoxyphenyl)ethyl]-6-cyclopentyl-3-[(3-ethyl-1,2,4-oxadiazol-5-yl)methyl]-4-hydroxy-5,6-dihydro-2H-pyran-2-one], the IC50 is 200 nM. `CCc1cccc(CCC2(C3CCCC3)CC(O)=C(Cc3nc4nc(C)cc(C)n4n3)C(=O)O2)c1` (single isomer, unassigned) [J(8), 6-Cyclopentyl-3-(5,7-dimethyl-[1,2,4]triazolo[1,5-a]pyrimidin-2-ylmethyl)-6-[2-(3-ethyl-phenyl)-ethyl]-4-hydroxy-5,6-dihydro-pyran-2-one]: the IC50 stood at 14 nM. The value for `Cc1cc(C)n2nc(CC3=C(O)CC(CCc4ccc(N(C)S(C)(=O)=O)c(F)c4)(C4CCCC4)OC3=O)nc2n1` (centres unmarked) [A(131), 6-cyclopentyl-3-[(5,7-dimethyl[1,2,4]triazolo[1,5-a]pyrimidin-2-yl)methyl]-6-[2-(3-fluoro-4-{methyl[methyl(dimethylene)-I^6-sulfanyl]amino}phenyl)ethyl]-4-hydroxy-5,6-dihydro-2H-pyran-2-one] was 137 nM. The value for `COc1ccc(CCC2(C3CCCC3)CC(O)=C(Cc3nc4nc(C)cc(C)n4n3)C(=O)O2)cc1C` (centres unmarked) [B(09), 6-Cyclopentyl-3-(5,7-dimethyl-[1,2,4]triazolo[1,5]pyrimidin-2-ylmethyl)-4-hydroxy-6-[2-(4-methoxy-3-methyl-phenyl)-ethyl]-5,6-dihydro-pyran-2-one] was 54 nM. The value for `CC(C)Oc1ccc(CCC2(C3CCCC3)CC(O)=C(Sc3cccc4cccnc34)C(=O)O2)cc1F` (centres unmarked) [C(01), 6-Cyclopentyl-6-[2-(3-fluoro-4-isopropoxy-phenyl)-ethyl]-4-hydroxy-3-(quinolin-8-ylsulfanyl)-5,6-dihydro-pyran-2-one] was 337 nM; that for `COc1ccc(CCC2(C3CCCC3)CC(O)=C(Sc3nnc(-c4ccco4)n3C)C(=O)O2)cc1Cl` (centres unmarked) [C(42), 6-[2-(3-chloro-4-methoxyphenyl)ethyl]-6-cyclopentyl-3-{[5-(2-furyl)-4-methyl-4H-1,2,4-triazol-3-yl]thio}-4-hydroxy-5,6-dihydro-2H-pyran-2-one] was 13 nM; that for `COc1ccc(CCC2(C3CCCC3)CC(O)=C(Sc3nc4cc(Cl)c(F)cc4[nH]3)C(=O)O2)cc1Cl` (centres unmarked) [C(61), 3-[(5-chloro-6-fluoro-1H-benzimidazol-2-yl)thio]-6-[2-(3-chloro-4-methoxyphenyl)ethyl]-6-cyclopentyl-4-hydroxy-5,6-dihydro-2H-pyran-2-one] was 140 nM. Take `CCc1cc(CCC2(C3CCCC3)CC(O)=C(Cc3nc4nc(C)cc(C)n4n3)C(=O)O2)ccc1OCCO` (centres unmarked) [B(104), 6-Cyclopentyl-3-(5,7-dimethyl-[1,2,4]triazolo[1,5-a]pyrimidin-2-ylmethyl)-6-{2-[3-ethyl-4-(2-hydroxy-ethoxy)-phenyl]-ethyl}-4-hydroxy-5,6-dihydro-pyran-2-one]: the IC50 came out at 3 nM. As for `Cc1cc(C)n2nc(CC3=C(O)CC(CCc4ccc(OC(C)C)c(F)c4)(C4CCCC4)OC3=O)nc2n1` (centres unmarked) [B(18)], the IC50 was 21 nM. On to `Cc1cc(C)n2nc(CC3=C(O)CC(CCc4ccc(OCc5c(C)noc5C)cc4)(C4CCCC4)OC3=O)nc2n1` (centres unmarked) [B(42), 6-Cyclopentyl-6-{2-[4-(3,5-dimethyl-isoxazol-4-ylmethoxy)-phenyl]-ethyl}-3-(5,7-dimethyl-[1,2,4]triazolo[1,5-a]pyrimidin-2-ylmethyl)-4-hydroxy-5,6-dihydro-pyran-2-one], for which the IC50 was 210 nM. Consider `COc1ccc(CCC2(C3CCCC3)CC(O)=C(Cc3nc4cc(OC)c(OC)cc4c(=O)[nH]3)C(=O)O2)cc1Cl` (centres unmarked) [B(57), 2-({6-[2-(3-chloro-4-methoxyphenyl)ethyl]-6-cyclopentyl-4-hydroxy-2-oxo-5,6-dihydro-2H-pyran-3-yl}methyl)-6,7-dimethoxyquinazolin-4(3H)-one], for which the IC50 was determined as 50 nM.
